One block for each compound: values may come before it. Non-standard residues stand in square brackets, D forms with d. Arg(NO2) = N=C(NCCC[C@H](N)C(=O)O)N[N+](=O)[O-]
Assay: Effect of concentration on the stability of the solution (purity over time)
Details: for Stability of common ester over the concentrations tested: 0.01% to 10% (or higher) in 50% ethanol at 25° C.; for Purity (%) at Day 3 / Purity (%) at Day 7 / Purity (%) at hr 0 / Purity (%) at hr 24 / Purity(%) at Day 14 / Purity(%) at Day 21 / Purity(%) at Day 28 / Purity (%) at hr 2: 25° C.; for Purity at Day 30 / Purity at Day 90 / Purity at Day 180 / Purity at day 0: 1 equivalent sodium acetate in 50% ethanol at 25° C.

Stability of common ester over the concentrations tested: not stable | Purity (%) at Day 3 (0.01 wt % in 50% ethanol): 92.1% | Purity (%) at Day 7 (0.01 wt % in 50% ethanol): 89.4% | Purity (%) at hr 0 (0.01 wt % in 50% ethanol): 98.0% | Purity (%) at hr 24 (0.01 wt % in 50% ethanol): 96.1% | Purity(%) at Day 14 (0.01 wt % in 50% ethanol): 83.0% | Purity(%) at Day 21 (0.01 wt % in 50% ethanol): 60.2% | Purity(%) at Day 28 (0.01 wt % in 50% ethanol): 35.2% | Purity (%) at Day 3 (0.1 wt % in 50% ethanol): 93.1% | Purity (%) at Day 7 (0.1 wt % in 50% ethanol): 91.4% | Purity (%) at hr 0 (0.1 wt % in 50% ethanol): 98.0% | Purity (%) at hr 24 (0.1 wt % in 50% ethanol): 96.4% | Purity(%) at Day 14 (0.1 wt % in 50% ethanol): 86.1% | Purity(%) at Day 21 (0.1 wt % in 50% ethanol): 64.1% | Purity(%) at Day 28 (0.1 wt % in 50% ethanol): 41.0% | Purity (%) at Day 3 (1 wt % in 50% ethanol): 93.9% | Purity (%) at Day 7 (1 wt % in 50% ethanol): 92.2% | Purity (%) at hr 0 (1 wt % in 50% ethanol): 98.1% | Purity (%) at hr 24 (1 wt % in 50% ethanol): 96.7% | Purity(%) at Day 14 (1 wt % in 50% ethanol): 88.9% | Purity(%) at Day 21 (1 wt % in 50% ethanol): 70.9% | Purity(%) at Day 28 (1 wt % in 50% ethanol): 48.9% | Purity (%) at Day 3 (3 wt % in 50% ethanol): 94.6% | Purity (%) at Day 7 (3 wt % in 50% ethanol): 92.4% | Purity (%) at hr 0 (3 wt % in 50% ethanol): 98.2% | Purity (%) at hr 24 (3 wt % in 50% ethanol): 96.9% | Purity(%) at Day 14 (3 wt % in 50% ethanol): 89.5% | Purity(%) at Day 21 (3 wt % in 50% ethanol): 72.4% | Purity(%) at Day 28 (3 wt % in 50% ethanol): 50.4% | Purity (%) at Day 3 (5 wt % in 50% ethanol): 94.8% | Purity (%) at Day 7 (5 wt % in 50% ethanol): 93.1% | Purity (%) at hr 0 (5 wt % in 50% ethanol): 98.1% | Purity (%) at hr 24 (5 wt % in 50% ethanol): 97.0% | Purity(%) at Day 14 (5 wt % in 50% ethanol): 90.0% | Purity(%) at Day 21 (5 wt % in 50% ethanol): 73.0% | Purity(%) at Day 28 (5 wt % in 50% ethanol): 56.9% | Purity (%) at Day 3 (10 wt % in 50% ethanol): 95.9% | Purity (%) at Day 7 (10 wt % in 50% ethanol): 93.9% | Purity (%) at hr 0 (10 wt % in 50% ethanol): 98.2% | Purity (%) at hr 24 (10 wt % in 50% ethanol): 97.6% | Purity(%) at Day 14 (10 wt % in 50% ethanol): 91.0% | Purity(%) at Day 21 (10 wt % in 50% ethanol): 74.9% | Purity(%) at Day 28 (10 wt % in 50% ethanol): 59.2%
Compound: CC(C)(C)OC(=O)C(N)Cc1ccccc1 (centres unmarked) [t-Butyl 2-amino-3-phenylpropanoate, reference compound]

Stability of common ester over the concentrations tested: very unstable | Purity (%) at Day 3 (0.01 wt % in 50% ethanol): 0.0% | Purity (%) at Day 7 (0.01 wt % in 50% ethanol): 0.0% | Purity (%) at hr 0 (0.01 wt % in 50% ethanol): 97.5% | Purity (%) at hr 2 (0.01 wt % in 50% ethanol): 25.2% | Purity (%) at hr 24 (0.01 wt % in 50% ethanol): 0.0% | Purity(%) at Day 14 (0.01 wt % in 50% ethanol): 0.0% | Purity (%) at Day 3 (0.1 wt % in 50% ethanol): 0.0% | Purity (%) at Day 7 (0.1 wt % in 50% ethanol): 0.0% | Purity (%) at hr 0 (0.1 wt % in 50% ethanol): 97.4% | Purity (%) at hr 2 (0.1 wt % in 50% ethanol): 31.2% | Purity (%) at hr 24 (0.1 wt % in 50% ethanol): 0.0% | Purity(%) at Day 14 (0.1 wt % in 50% ethanol): 0.0% | Purity (%) at Day 3 (1 wt % in 50% ethanol): 0.0% | Purity (%) at Day 7 (1 wt % in 50% ethanol): 0.0% | Purity (%) at hr 0 (1 wt % in 50% ethanol): 97.5% | Purity (%) at hr 2 (1 wt % in 50% ethanol): 41.3% | Purity (%) at hr 24 (1 wt % in 50% ethanol): 1.6% | Purity(%) at Day 14 (1 wt % in 50% ethanol): 0.0% | Purity (%) at Day 3 (3 wt % in 50% ethanol): 1.1% | Purity (%) at Day 7 (3 wt % in 50% ethanol): 0.0% | Purity (%) at hr 0 (3 wt % in 50% ethanol): 97.4% | Purity (%) at hr 2 (3 wt % in 50% ethanol): 52.3% | Purity (%) at hr 24 (3 wt % in 50% ethanol): 15.4% | Purity(%) at Day 14 (3 wt % in 50% ethanol): 0.0% | Purity (%) at Day 3 (5 wt % in 50% ethanol): 3.6% | Purity (%) at Day 7 (5 wt % in 50% ethanol): 0.0% | Purity (%) at hr 0 (5 wt % in 50% ethanol): 97.4% | Purity (%) at hr 2 (5 wt % in 50% ethanol): 56.3% | Purity (%) at hr 24 (5 wt % in 50% ethanol): 20.3% | Purity(%) at Day 14 (5 wt % in 50% ethanol): 0.0% | Purity (%) at Day 3 (10 wt % in 50% ethanol): 5.1% | Purity (%) at Day 7 (10 wt % in 50% ethanol): 0.0% | Purity (%) at hr 0 (10 wt % in 50% ethanol): 97.8% | Purity (%) at hr 2 (10 wt % in 50% ethanol): 65.5% | Purity (%) at hr 24 (10 wt % in 50% ethanol): 25.1% | Purity(%) at Day 14 (10 wt % in 50% ethanol): 0.0%
Compound: CC(C)(C)OC(=O)c1ccccc1 [t-Butyl benzoate, reference compound]

Compound: H-Val-Pro-Gly-Pro-Arg(NO2)—OCH2CH3•HCl (H-VPGP[Arg(NO2)]-OEt; also: HCl salt)
Purity at Day 30 (0.01 wt %): 55.5% | Purity at Day 90 (0.01 wt %): 22.2% | Purity at Day 180 (0.01 wt %): 0% | Purity at day 0 (0.01 wt %): 98.1% | Purity at Day 30 (0.1 wt %): 65.7% | Purity at Day 90 (0.1 wt %): 31.3% | Purity at Day 180 (0.1 wt %): 9.6% | Purity at day 0 (0.1 wt %): 98.2% | Purity at Day 30 (1 wt %): 91.1% | Purity at Day 90 (1 wt %): 77.3% | Purity at Day 180 (1 wt %): 58.6% | Purity at day 0 (1 wt %): 98.5% | Purity at Day 30 (3 wt %): 96.8% | Purity at Day 90 (3 wt %): 93.2% | Purity at Day 180 (3 wt %): 87.8% | Purity at day 0 (3 wt %): 98.6% | Purity at Day 30 (5 wt %): 97.3% | Purity at Day 90 (5 wt %): 94.9% | Purity at Day 180 (5 wt %): 90.5% | Purity at day 0 (5 wt %): 98.7% | Purity at Day 30 (7 wt %): 97.6% | Purity at Day 90 (7 wt %): 95.2% | Purity at Day 180 (7 wt %): 91.7% | Purity at day 0 (7 wt %): 98.7% | Purity at Day 30 (8 wt %): 97.7% | Purity at Day 90 (8 wt %): 95.2% | Purity at Day 180 (8 wt %): 91.6% | Purity at day 0 (8 wt %): 98.6% | Purity at Day 30 (10 wt %): 97.5% | Purity at Day 90 (10 wt %): 95.3% | Purity at Day 180 (10 wt %): 91.7% | Purity at day 0 (10 wt %): 98.6% | Purity at Day 30 (15 wt %): 97.7% | Purity at Day 90 (15 wt %): 95.3% | Purity at Day 180 (15 wt %): 91.8% | Purity at day 0 (15 wt %): 98.8% | Purity at Day 30 (20 wt %): 97.5% | Purity at Day 90 (20 wt %): 95.1% | Purity at Day 180 (20 wt %): 91.5% | Purity at day 0 (20 wt %): 98.6% | Purity at Day 30 (30 wt %): 97.5% | Purity at Day 90 (30 wt %): 95.1% | Purity at Day 180 (30 wt %): 91.6% | Purity at day 0 (30 wt %): 98.7% | Purity at Day 30 (50 wt %): 97.7% | Purity at Day 90 (50 wt %): 95.3% | Purity at Day 180 (50 wt %): 91.8% | Purity at day 0 (50 wt %): 98.7%
